According to patent publication US8287923B2, “Compositions and methods for treating immune disorders” (priority 2005, dated 2012):

Test system: normal human epidermal keratinocytes (NHEK)
Assay: Affymetrix gene array analysis, autoantigen gene expression
Format: cell-based
Experimental: The gene array experiment was performed at the Core Facility of Genomics of the Medical College of Georgia, according to the instructions of the manufacturer (Affymetrix, Santa Clara, Calif.). Briefly, NHEK and OSC2 cells treated with 100 μM EGCG for different time period were extracted for total RNA, the RNA was processed for probes and hybridized with a cDNA microarray (HuG133A, Affymetrix) which represents 22,283 human series. DNA chips were read with a Hewlett-Packard GeneArray Scanner at a resolution of […] and were analyzed with the GeneSpring software (Silicon Genetics, Redwood City, Calif.). Details of this analysis will be published elsewhere (Hsu et al., manuscript in preparation).
Gene assays provide a valuable tool for studying the broad response of cells to agents, and we have used this approach to compare the differential effects of GTPP on gene expression in NHEK and human oral squamous carcinoma cells (Hsu, et al, manuscript in preparation). […] See also Hsu, S. et al. (2005) JPET 315:805-811, which is incorporated by reference in its entirety.

RNA polymerase 1 (202692_s-at) expression, normalized (0.5 h, 100 μM): 0.50
ADPRT [poly(ADP)-ribose polymerase] expression (0.5 h, 100 μM, vs time zero): 3.547 fold
Structure (SMILES): O=C(O[C@@H]1Cc2c(O)cc(O)cc2O[C@@H]1c1cc(O)c(O)c(O)c1)c1cc(O)c(O)c(O)c1 [EGCG, (−)-epigallocatechin-3-gallate]
genes either up- or down-regulated by at least 2-fold (100 uM EGCG, both cell types (NHEK, oral squamous carcinoma cells), 24 hrs post-treatment): approximately 2100 genes
60 kDa, SS-A/Ro (210438_x_at) expression, normalized (0.5 h, 100 μM): 0.71
60 kDa, SS-A/Ro (212852_s_at) expression, normalized (0.5 h, 100 μM): 0.60
Ku autoantigen, 80 kDa (208642_s_at) expression, normalized (0.5 h, 100 μM): 1.29
Ku autoantigen, 80 kDa (208643_s_at) expression, normalized (0.5 h, 100 μM): 2.34
Nuclear antigen SP100 (202863_at) expression, normalized (0.5 h, 100 μM): 1.72
Nuclear antigen SP100 (202864_s_at) expression, normalized (0.5 h, 100 μM): 3.12
Nuclear antigen SP10075 kDa (213226_at) expression, normalized (0.5 h, 100 μM): 3.99
SS-B/La (201138_s_at) expression, normalized (0.5 h, 100 μM): 0.84
SS-B/La (201139_s_at) expression, normalized (0.5 h, 100 μM): 0.71
centromere protein C1 (20473_at) expression, normalized (0.5 h, 100 μM): 1.27
coilin (203653_s_at) expression, normalized (0.5 h, 100 μM): 0.49
coilin (203654_s_at) expression, normalized (0.5 h, 100 μM): 1.11
fodrin-α (208611_s_at) expression, normalized (0.5 h, 100 μM): 0.41
fodrin-α (215235_s_at) expression, normalized (0.5 h, 100 μM): 0.49
golgin-67 (208797_s_at) expression, normalized (0.5 h, 100 μM): 1.26
golgin-67 (208798_x_at) expression, normalized (0.5 h, 100 μM): 0.81
golgin-67 (210425_x_at) expression, normalized (0.5 h, 100 μM): 0.50
golgin-67 (213650_at) expression, normalized (0.5 h, 100 μM): 0.24
scleroderma autoantigen 1, 75 kDa (213226_at) expression, normalized (0.5 h, 100 μM): 3.99
spectrin-β non-erythrocyctic 1 (212071_s_at) expression, normalized (0.5 h, 100 μM): 0.91
thyroid autoantigen 70 kDa (Ku antigen) (200792_at) expression, normalized (0.5 h, 100 μM): 1.15
ANAP12 expression (0.5 h, 100 μM, vs time zero): 0.505 fold
ANXA11 expression (0.5 h, 100 μM, vs time zero): 1.043 fold
CALR expression (0.5 h, 100 μM, vs time zero): 0.71 fold
CBARA1 expression (0.5 h, 100 μM, vs time zero): 0.506 fold
CENPA expression (0.5 h, 100 μM, vs time zero): 7.677 fold
CENPB expression (0.5 h, 100 μM, vs time zero): 0.506 fold
CENPC1 expression (0.5 h, 100 μM, vs time zero): 1.269 fold
CHD4 expression (0.5 h, 100 μM, vs time zero): 0.766 fold
COL17A1 expression (0.5 h, 100 μM, vs time zero): 1.749 fold
CTDSP1 expression (0.5 h, 100 μM, vs time zero): 0.71 fold
CTDSP2 expression (0.5 h, 100 μM, vs time zero): 1.61 fold
CTDSPL expression (0.5 h, 100 μM, vs time zero): 2.83 fold
DLAT expression (0.5 h, 100 μM, vs time zero): 1.54 fold
EPPK1 expression (0.5 h, 100 μM, vs time zero): 0.793 fold
FBL expression (0.5 h, 100 μM, vs time zero): 1.64 fold
FLJ31657 expression (0.5 h, 100 μM, vs time zero): 0.833 fold
FLNB (Filamin B, β) expression (0.5 h, 100 μM, vs time zero): 1.379 fold
FLNB (Filamin B, γ) expression (0.5 h, 100 μM, vs time zero): 0.72 fold
G22P1 (Thyroid autoantigen, 70 kDa, Ku antigen) expression (0.5 h, 100 μM, vs time zero): 1.15 fold
GMEB2 expression (0.5 h, 100 μM, vs time zero): 0.584 fold
GOLGA1 expression (0.5 h, 100 μM, vs time zero): 0.398 fold
GOLGA2 expression (0.5 h, 100 μM, vs time zero): 0.332 fold
GOLGA3 expression (0.5 h, 100 μM, vs time zero): 0.533 fold
GOLGA4 expression (0.5 h, 100 μM, vs time zero): 0.822 fold
GOLGA5 expression (0.5 h, 100 μM, vs time zero): 1.566 fold
GOLGB1 expression (0.5 h, 100 μM, vs time zero): 0.969 fold
HARS expression (0.5 h, 100 μM, vs time zero): 1.27 fold
HARSL expression (0.5 h, 100 μM, vs time zero): 1.12 fold
HSA6591 expression (0.5 h, 100 μM, vs time zero): 0.456 fold
HUMAUANTIG expression (0.5 h, 100 μM, vs time zero): 0.948 fold
IMP-2 expression (0.5 h, 100 μM, vs time zero): 1.615 fold
LAD1 expression (0.5 h, 100 μM, vs time zero): 0.799 fold
LMO4 expression (repeat 1) (0.5 h, 100 μM, vs time zero): 0.272 fold
LMO4 expression (repeat 2) (0.5 h, 100 μM, vs time zero): 0.6 fold
MGC5560 expression (repeat 1) (0.5 h, 100 μM, vs time zero): 4.392 fold
MGC5560 expression (repeat 2) (0.5 h, 100 μM, vs time zero): 7.07 fold
NS (Nucleostemin) expression (0.5 h, 100 μM, vs time zero): 0.634 fold
PDHB expression (0.5 h, 100 μM, vs time zero): 1.079 fold
PDX1 expression (0.5 h, 100 μM, vs time zero): 1.103 fold
PMSCL1, 75 kDa expression (0.5 h, 100 μM, vs time zero): 3.993 fold
PMSCL2 expression (0.5 h, 100 μM, vs time zero): 0.959 fold
POLR1B expression (0.5 h, 100 μM, vs time zero): 0.67 fold
POLR1D expression (0.5 h, 100 μM, vs time zero): 0.90 fold
POLR2A expression (repeat 1) (0.5 h, 100 μM, vs time zero): 0.13 fold
POLR2A expression (repeat 2) (0.5 h, 100 μM, vs time zero): 1.03 fold
POLR2B expression (0.5 h, 100 μM, vs time zero): 1.83 fold
POLR2C expression (0.5 h, 100 μM, vs time zero): 1.32 fold
POLR2D expression (0.5 h, 100 μM, vs time zero): 1.14 fold
POLR2E expression (0.5 h, 100 μM, vs time zero): 0.45 fold
POLR2F expression (0.5 h, 100 μM, vs time zero): 0.90 fold
POLR2G expression (0.5 h, 100 μM, vs time zero): 1.09 fold
POLR2H expression (0.5 h, 100 μM, vs time zero): 0.88 fold
POLR3C expression (0.5 h, 100 μM, vs time zero): 0.90 fold
POLR3G expression (0.5 h, 100 μM, vs time zero): 1.55 fold
PSME3 expression (0.5 h, 100 μM, vs time zero): 2.554 fold
RALY expression (0.5 h, 100 μM, vs time zero): 1.556 fold
SART1 expression (0.5 h, 100 μM, vs time zero): 1.982 fold
SLC25A16 expression (0.5 h, 100 μM, vs time zero): 1.022 fold
SNRP70 expression (0.5 h, 100 μM, vs time zero): 3.59 fold
SNRPA expression (0.5 h, 100 μM, vs time zero): 1.29 fold
SNRPB2 expression (0.5 h, 100 μM, vs time zero): 0.49 fold
SNRPB expression (repeat 1) (0.5 h, 100 μM, vs time zero): 0.96 fold
SNRPB expression (repeat 2) (0.5 h, 100 μM, vs time zero): 0.62 fold
SNRPC expression (0.5 h, 100 μM, vs time zero): 1.28 fold
SNRPD1 expression (repeat 1) (0.5 h, 100 μM, vs time zero): 2.098 fold
SNRPD1 expression (repeat 2) (0.5 h, 100 μM, vs time zero): 0.755 fold
SOX13 expression (0.5 h, 100 μM, vs time zero): 1.304 fold
SP100 expression (repeat 1) (0.5 h, 100 μM, vs time zero): 1.72 fold
SP100 expression (repeat 2) (0.5 h, 100 μM, vs time zero): 3.123 fold
SP110 expression (repeat 1) (0.5 h, 100 μM, vs time zero): 5.725 fold
SP110 expression (repeat 2) (0.5 h, 100 μM, vs time zero): 4.176 fold
SP110 expression (repeat 3) (0.5 h, 100 μM, vs time zero): 1.149 fold
SPTAN1 (α-fodrin) expression (repeat 1) (0.5 h, 100 μM, vs time zero): 0.41 fold
SPTAN1 (α-fodrin) expression (repeat 2) (0.5 h, 100 μM, vs time zero): 0.49 fold
SPTBN expression (0.5 h, 100 μM, vs time zero): 0.91 fold
SSA2 (autoantigen SS-A/Ro) expression (repeat 2) (0.5 h, 100 μM, vs time zero): 0.709 fold
SSA2 expression (repeat 1) (0.5 h, 100 μM, vs time zero): 1.009 fold
SSA2 expression (repeat 3) (0.5 h, 100 μM, vs time zero): 0.505 fold
SSA2 expression (repeat 4) (0.5 h, 100 μM, vs time zero): 0.596 fold
SSB (autoantigen La) expression (repeat 1) (0.5 h, 100 μM, vs time zero): 0.838 fold
SSB (autoantigen La) expression (repeat 2) (0.5 h, 100 μM, vs time zero): 0.711 fold
SSNA1 expression (0.5 h, 100 μM, vs time zero): 1.354 fold
SSSCA1 expression (0.5 h, 100 μM, vs time zero): 1.267 fold
STRN3 expression (0.5 h, 100 μM, vs time zero): 0.425 fold
TOP1 expression (repeat 1) (0.5 h, 100 μM, vs time zero): 0.85 fold
TOP1 expression (repeat 2) (0.5 h, 100 μM, vs time zero): 0.62 fold
UBTF expression (0.5 h, 100 μM, vs time zero): 0.498 fold
XRCC5 (Ku autoantigen, 80 kDa) expression (repeat 1) (0.5 h, 100 μM, vs time zero): 2.338 fold
XRCC5 (Ku autoantigen, 80 kDa) expression (repeat 2) (0.5 h, 100 μM, vs time zero): 1.87 fold
dJ963E22.1 expression (0.5 h, 100 μM, vs time zero): 1.842 fold
α-NAC expression (0.5 h, 100 μM, vs time zero): 0.632 fold
